Source: the NIST ThermoML archive (doi:10.1021/acs.jced.8b00153)
Values joined by “and” are separate entries in the source; they are usually repeats but may differ in a detail not shown here. Identical values can stand only once.

Details: for speed of sound / mass density / vapor or sublimation pressure / viscosity: Liquid; for speed of sound: Frequency=3 MHz, Single path-length method; for mass density: Vibrating tube method; for vapor or sublimation pressure: Ebulliometric method (Recirculating still); for surface tension liquid-gas: Drop volume; for viscosity: Capillary tube (Ostwald / Ubbelohde) method

CCc1cccs1 [2-ethylthiophene]
Details | mass density | speed of sound [m/s] | viscosity [mPa·s]
313.15 K, 100 kPa | 973.34 kg/m3 and 973.3 kg/m3 | 1237.7 | –
313.15 K, 2000 kPa | 975 kg/m3 | – | –
313.15 K, 5000 kPa | 977.54 kg/m3 | – | –
313.15 K, 7000 kPa | 979.22 kg/m3 | – | –
313.15 K, 10000 kPa | 981.68 kg/m3 | – | –
313.15 K, 15000 kPa | 985.61 kg/m3 | – | –
313.15 K, 20000 kPa | 989.42 kg/m3 | – | –
313.15 K, 25000 kPa | 993.09 kg/m3 | – | –
313.15 K, 30000 kPa | 996.63 kg/m3 | – | –
313.15 K, 35000 kPa | 1000.06 kg/m3 | – | –
313.15 K, 40000 kPa | 1003.38 kg/m3 | – | –
313.15 K, 45000 kPa | 1006.6 kg/m3 | – | –
313.15 K, 50000 kPa | 1009.71 kg/m3 | – | –
313.15 K, 55000 kPa | 1012.75 kg/m3 | – | –
313.15 K, 60000 kPa | 1015.69 kg/m3 | – | –
313.15 K, 65000 kPa | 1018.54 kg/m3 | – | –
315.65 K, 100 kPa | 970.77 kg/m3 | 1227.7 | 0.613
318.15 K, 100 kPa | 968.32 kg/m3 and 968.24 kg/m3 | 1218 | 0.5981
318.15 K, 2000 kPa | 970.02 kg/m3 | – | –
318.15 K, 5000 kPa | 972.64 kg/m3 | – | –
318.15 K, 7000 kPa | 974.36 kg/m3 | – | –
318.15 K, 10000 kPa | 976.86 kg/m3 | – | –
318.15 K, 15000 kPa | 980.93 kg/m3 | – | –
318.15 K, 20000 kPa | 984.83 kg/m3 | – | –
318.15 K, 25000 kPa | 988.58 kg/m3 | – | –
318.15 K, 30000 kPa | 992.22 kg/m3 | – | –
318.15 K, 35000 kPa | 995.71 kg/m3 | – | –
318.15 K, 40000 kPa | 999.11 kg/m3 | – | –
318.15 K, 45000 kPa | 1002.39 kg/m3 | – | –
318.15 K, 50000 kPa | 1005.57 kg/m3 | – | –
318.15 K, 55000 kPa | 1008.66 kg/m3 | – | –
318.15 K, 60000 kPa | 1011.66 kg/m3 | – | –
318.15 K, 65000 kPa | 1014.56 kg/m3 | – | –
320.65 K, 100 kPa | 965.71 kg/m3 | 1208.3 | 0.584
323.15 K, 100 kPa | 963.21 kg/m3 and 963.18 kg/m3 | 1198 | 0.5702
323.15 K, 2000 kPa | 964.97 kg/m3 | – | –
323.15 K, 5000 kPa | 967.69 kg/m3 | – | –
323.15 K, 7000 kPa | 969.44 kg/m3 | – | –
323.15 K, 10000 kPa | 972.03 kg/m3 | – | –
323.15 K, 15000 kPa | 976.2 kg/m3 | – | –
323.15 K, 20000 kPa | 980.22 kg/m3 | – | –
323.15 K, 25000 kPa | 984.06 kg/m3 | – | –
323.15 K, 30000 kPa | 987.78 kg/m3 | – | –
323.15 K, 35000 kPa | 991.35 kg/m3 | – | –
323.15 K, 40000 kPa | 994.81 kg/m3 | – | –
323.15 K, 45000 kPa | 998.17 kg/m3 | – | –
323.15 K, 50000 kPa | 1001.41 kg/m3 | – | –
323.15 K, 55000 kPa | 1004.56 kg/m3 | – | –
323.15 K, 60000 kPa | 1007.62 kg/m3 | – | –
323.15 K, 65000 kPa | 1010.59 kg/m3 | – | –
325.65 K, 100 kPa | 960.64 kg/m3 | 1188.3 | 0.5566
328.15 K, 100 kPa | 958.12 kg/m3 and 958.1 kg/m3 | 1179.1 | 0.5437
328.15 K, 2000 kPa | 959.94 kg/m3 | – | –
328.15 K, 5000 kPa | 962.71 kg/m3 | – | –
328.15 K, 7000 kPa | 964.53 kg/m3 | – | –
328.15 K, 10000 kPa | 967.18 kg/m3 | – | –
328.15 K, 15000 kPa | 971.45 kg/m3 | – | –
328.15 K, 20000 kPa | 975.56 kg/m3 | – | –
328.15 K, 25000 kPa | 979.5 kg/m3 | – | –
328.15 K, 30000 kPa | 983.31 kg/m3 | – | –
328.15 K, 35000 kPa | 986.98 kg/m3 | – | –
328.15 K, 40000 kPa | 990.51 kg/m3 | – | –
328.15 K, 45000 kPa | 993.94 kg/m3 | – | –
328.15 K, 50000 kPa | 997.24 kg/m3 | – | –
328.15 K, 55000 kPa | 1000.47 kg/m3 | – | –
328.15 K, 60000 kPa | 1003.58 kg/m3 | – | –
328.15 K, 65000 kPa | 1006.6 kg/m3 | – | –
330.65 K, 100 kPa | 955.55 kg/m3 | 1168.7 | 0.5313
333.15 K, 100 kPa | 952.99 kg/m3 and 953 kg/m3 | 1159.1 | 0.519
333.15 K, 2000 kPa | 954.85 kg/m3 | – | –
333.15 K, 5000 kPa | 957.72 kg/m3 | – | –
333.15 K, 7000 kPa | 959.58 kg/m3 | – | –
333.15 K, 10000 kPa | 962.31 kg/m3 | – | –
333.15 K, 15000 kPa | 966.72 kg/m3 | – | –
333.15 K, 20000 kPa | 970.93 kg/m3 | – | –
333.15 K, 25000 kPa | 974.97 kg/m3 | – | –
333.15 K, 30000 kPa | 978.86 kg/m3 | – | –
333.15 K, 35000 kPa | 982.61 kg/m3 | – | –
333.15 K, 40000 kPa | 986.22 kg/m3 | – | –
333.15 K, 45000 kPa | 989.73 kg/m3 | – | –
333.15 K, 50000 kPa | 993.09 kg/m3 | – | –
333.15 K, 55000 kPa | 996.39 kg/m3 | – | –
333.15 K, 60000 kPa | 999.56 kg/m3 | – | –
333.15 K, 65000 kPa | 1002.62 kg/m3 | – | –
335.65 K, 100 kPa | 950.44 kg/m3 | 1149.9 | 0.5072
338.15 K, 100 kPa | 947.86 kg/m3 and 947.89 kg/m3 | 1140.3 | 0.4965
338.15 K, 2000 kPa | 949.78 kg/m3 | – | –
338.15 K, 5000 kPa | 952.72 kg/m3 | – | –
338.15 K, 7000 kPa | 954.65 kg/m3 | – | –
338.15 K, 10000 kPa | 957.46 kg/m3 | – | –
338.15 K, 15000 kPa | 961.97 kg/m3 | – | –
338.15 K, 20000 kPa | 966.32 kg/m3 | – | –
338.15 K, 25000 kPa | 970.44 kg/m3 | – | –
338.15 K, 30000 kPa | 974.41 kg/m3 | – | –
338.15 K, 35000 kPa | 978.26 kg/m3 | – | –
338.15 K, 40000 kPa | 981.96 kg/m3 | – | –
338.15 K, 45000 kPa | 985.53 kg/m3 | – | –
338.15 K, 50000 kPa | 988.98 kg/m3 | – | –
338.15 K, 55000 kPa | 992.31 kg/m3 | – | –
338.15 K, 60000 kPa | 995.56 kg/m3 | – | –
338.15 K, 65000 kPa | 998.71 kg/m3 | – | –

Details | surface tension liquid-gas [mN/m] | vapor or sublimation pressure [kPa]
315.55 K | – | 3.01
315.65 K | 28.16 | –
318.15 K | 27.84 | –
320.65 K | 27.54 | –
321.73 K | – | 4.095
323.15 K | 27.27 | –
325.65 K | 26.93 | –
326.03 K | – | 5.05
328.15 K | 26.69 | –
330.65 K | 26.36 | –
330.78 K | – | 6.285
333.15 K | 26.03 | –
335.65 K | 25.74 | –
336.67 K | – | 8.17
338.15 K | 25.45 | –
342 K | – | 10.22
346.57 K | – | 12.34
351.71 K | – | 15.14
356.68 K | – | 18.34
360.83 K | – | 21.48
365.1 K | – | 24.99
370.4 K | – | 30.07
374.16 K | – | 34.19
379.56 K | – | 40.88
382.77 K | – | 45.27
387.16 K | – | 51.94
390.75 K | – | 57.93
394.79 K | – | 65.36
397.67 K | – | 71.07
401.74 K | – | 79.78
404.64 K | – | 86.5
406.64 K | – | 91.35
409.15 K | – | 97.8
410.46 K | – | 101.33
